Laboratory results published in ChEMBL document CHEMBL1268929, “Design, synthesis, and evaluation of an α-tocopherol analogue as a mitochondrial antioxidant” (2010).
Active and inactive are the calls of the source. The rule behind the calls is not given here.

Key:
CCRF-CEM = test: Antioxidant activity against diethyl maleate-induced intracellular ROS accumulation in human CEM cells at 5 uM pretreated for 1 hr before diethyl maleate challenge measured after 30 mins by flow cytometry; assay type: functional
Bos taurus = organism: Bos taurus; test: Antioxidant activity against AAPH-induced lipid peroxidation in bovine heart mitochondrial membrane at 50 uM by spectrofluorimetric analysis; assay type: functional; conditions: Mitochondria

Row | Structure (SMILES) | Activity (CCRF-CEM) | Activity (Bos taurus)
1 | Cc1c(C)c2c(c(C)c1O)CC[C@@](C)(CCC[C@H](C)CCC[C@H](C)CCCC(C)C)O2 [ALPHA-TOCOPHEROL] | 65% | –
2 | Cc1nc2c(c(CC[C@](C)(O)CCC[C@H](C)CCC[C@H](C)CCCC(C)C)c1O)CCN2C | 2% | Active
3 | Cc1nc2c(c(C)c1O)CCN2C | 75% | –
